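Following 48 hours of exposure in 96-well plates, responses at five concentrations were used to interpolate endpoints linearly. GI50 marks 50% less growth.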 Calls of active or inactive are those of the source. No stated cut-off is given here; in the data, active = GI50 up to about 1.1 µM and inactive = higher.
Tests used:
Experiment in all cases: DTP human tumour cell line panel, 48 h
RXF 393 = test system: RXF 393
SK-MEL-28 = test system: SK-MEL-28
SK-MEL-2 = test system: SK-MEL-2
OVCAR-5 = test system: OVCAR-5
SF-295 = test system: SF-295
HL-60 = test system: HL-60
HT-29 = test system: HT-29
786-0 = test system: 786-0
HCT-15 = test system: HCT-15
LOX IMVI = test system: LOX IMVI
SW-620 = test system: SW-620
OVCAR-4 = test system: OVCAR-4
COLO 205 = test system: COLO 205
NCI-H226 = test system: NCI-H226
M14 = test system: M14
MOLT-4 = test system: MOLT-4
OVCAR-8 = test system: OVCAR-8
A498 = test system: A498

SMILES	GI50 (RXF 393)	GI50 (SK-MEL-28)	GI50 (SK-MEL-2)	GI50 (OVCAR-5)	GI50 (SF-295)	GI50 (HL-60)	GI50 (HT-29)	GI50 (786-0)	GI50 (HCT-15)	GI50 (LOX IMVI)	GI50 (SW-620)	GI50 (OVCAR-4)	GI50 (COLO 205)	GI50 (NCI-H226)	GI50 (M14)	GI50 (MOLT-4)	GI50 (OVCAR-8)	GI50 (A498)
CCOC1(COP(=O)(OCc2ccccc2)OCc2ccccc2)COC(COP(=O)(OCc2ccccc2)OCc2ccccc2)(OCC)CO1 (configuration not stated)	4.33 µM (inactive)	> 100 µM (inactive)	> 100 µM (inactive)	> 100 µM (inactive)	> 100 µM (inactive)	30.8 µM (inactive)	> 100 µM (inactive)	> 100 µM (inactive)	> 100 µM	> 100 µM (inactive)	> 100 µM (inactive)	4.61 µM (inactive)	> 100 µM (inactive)	89.7 µM (inactive)	> 100 µM (inactive)	17.4 µM (inactive)	59 µM (inactive)	
O=C1C=CC(=O)C2C1Cc1ccccc1C2c1ccccc1 (configuration not stated)		97.1 µM (inactive)	27.8 µM (inactive)	> 100 µM (inactive)	> 100 µM (inactive)	23 µM (inactive)	37.8 µM (inactive)	38.5 µM (inactive)	36.6 µM	41.6 µM (inactive)	27.7 µM (inactive)	20.5 µM (inactive)	19.5 µM (inactive)	65.5 µM (inactive)	42.8 µM (inactive)	32.7 µM (inactive)	25.9 µM (inactive)	22.4 µM (inactive)
Cc1ccc([N+]2=NC(c3ccc([N+](=O)[O-])cc3)=NN(c3ccccc3)C2)cc1	51.9 µM (inactive)	> 100 µM (inactive)		> 100 µM (inactive)	53.3 µM (inactive)	61.7 µM (inactive)	57.9 µM (inactive)	> 100 µM (inactive)	38.6 µM	60 µM (inactive)	> 100 µM (inactive)	17.6 µM (inactive)	> 100 µM (inactive)	> 100 µM (inactive)		21 µM (inactive)	42.1 µM (inactive)	95.9 µM (inactive)
CCN(CC)CCOC(=O)/C(=C/c1ccc(OC)cc1)c1cc(OC)c(OC)c(OC)c1	2.15 µM (inactive)	6.08 µM (inactive)		16.4 µM (inactive)	1.83 µM (inactive)	3.3 µM (inactive)	1.92 µM (inactive)	7.64 µM (inactive)	4.82 µM	5.08 µM (inactive)	4.18 µM (inactive)	31.4 µM (inactive)	5.75 µM (inactive)	13.5 µM (inactive)	6.43 µM (inactive)	24.5 µM (inactive)	15.5 µM (inactive)	2.48 µM (inactive)
